According to the NIST ThermoML archive (doi:10.1016/j.jct.2005.08.002):
± gives the expanded uncertainty stated by the source.

How the values were obtained:
[1] = 101 kPa, Liquid; for viscosity: Capillary tube (Ostwald / Ubbelohde) method; for speed of sound: Sing-around technique in a fixed-path interferometer; for mass density: Vibrating tube method
[2] = xn = mol fraction of the nth substance listed; conditions: 101 kPa, Liquid, x2 = 0; for viscosity: Capillary tube (Ostwald / Ubbelohde) method; for speed of sound: Sing-around technique in a fixed-path interferometer; for mass density: Vibrating tube method

| Structure (SMILES) | viscosity ([1]; 293.15 K) | speed of sound ([1]; 293.15 K) | mass density ([1]; 293.15 K) | viscosity ([1]; 298.15 K) | speed of sound ([1]; 298.15 K) | mass density ([1]; 298.15 K) | viscosity ([1]; 303.15 K) | speed of sound ([1]; 303.15 K) | mass density ([1]; 303.15 K) | viscosity ([2]; 293.15 K) | speed of sound ([2]; 293.15 K) | mass density ([2]; 293.15 K) | viscosity ([2]; 298.15 K) | speed of sound ([2]; 298.15 K) | mass density ([2]; 298.15 K) | viscosity ([2]; 303.15 K) | speed of sound ([2]; 303.15 K) | mass density ([2]; 303.15 K) |
| --- | --- | --- | --- | --- | --- | --- | --- | --- | --- | --- | --- | --- | --- | --- | --- | --- | --- | --- |
| CC(C)=O [acetone] | 0.32 ± 0.007 mPa·s | 1185 ± 2 m/s | 791.11 ± 0.15 kg/m3 | 0.306 ± 0.007 mPa·s | 1162 ± 2 m/s | 785.41 ± 0.15 kg/m3 | 0.292 ± 0.006 mPa·s | 1140 ± 2 m/s | 779.66 ± 0.15 kg/m3 |  |  |  |  |  |  |  |  |  |
| CC(C)=O [acetone] + CC1CCCC1 |  |  |  |  |  |  |  |  |  | 0.32 ± 0.007 mPa·s | 1185 ± 2 m/s | 791.11 ± 0.15 kg/m3 | 0.306 ± 0.007 mPa·s | 1162 ± 2 m/s | 785.41 ± 0.15 kg/m3 | 0.292 ± 0.006 mPa·s | 1140 ± 2 m/s | 779.66 ± 0.15 kg/m3 |
| CCCC(C)=O [pentan-2-one] + CC1CCCC1 |  |  |  |  |  |  |  |  |  | 0.496 ± 0.011 mPa·s | 1233 ± 2 m/s | 806.26 ± 0.23 kg/m3 | 0.469 ± 0.01 mPa·s | 1213 ± 2 m/s | 801.42 ± 0.23 kg/m3 | 0.444 ± 0.009 mPa·s | 1192 ± 2 m/s | 796.58 ± 0.23 kg/m3 |
| CC1CCCC1 [methylcyclopentane] | 0.504 ± 0.016 mPa·s | 1197 ± 5 m/s | 746.64 ± 2 kg/m3 | 0.476 ± 0.016 mPa·s | 1174 ± 5 m/s | 741.94 ± 2 kg/m3 | 0.45 ± 0.015 mPa·s | 1150 ± 5 m/s | 737.21 ± 1.9 kg/m3 |  |  |  |  |  |  |  |  |  |
| CCC(C)=O [butanone] + CC1CCCC1 |  |  |  |  |  |  |  |  |  | 0.398 ± 0.009 mPa·s | 1213 ± 2 m/s | 804.95 ± 0.23 kg/m3 | 0.378 ± 0.008 mPa·s | 1192 ± 2 m/s | 799.74 ± 0.23 kg/m3 | 0.36 ± 0.008 mPa·s | 1171 ± 2 m/s | 794.48 ± 0.23 kg/m3 |
| CCC(C)=O [butanone] | 0.398 ± 0.009 mPa·s | 1213 ± 2 m/s | 804.95 ± 0.23 kg/m3 | 0.378 ± 0.008 mPa·s | 1192 ± 2 m/s | 799.74 ± 0.23 kg/m3 | 0.36 ± 0.008 mPa·s | 1171 ± 2 m/s | 794.48 ± 0.23 kg/m3 |  |  |  |  |  |  |  |  |  |
| CCCC(C)=O [pentan-2-one] | 0.496 ± 0.011 mPa·s | 1233 ± 2 m/s | 806.26 ± 0.23 kg/m3 | 0.469 ± 0.01 mPa·s | 1213 ± 2 m/s | 801.42 ± 0.23 kg/m3 | 0.444 ± 0.009 mPa·s | 1192 ± 2 m/s | 796.58 ± 0.23 kg/m3 |  |  |  |  |  |  |  |  |  |
